These results are taken from a melting point compilation (Tetko et al.; mined from patent text by program, amines drawn as free bases though some values may be those of a salt).

One may read the melting point as the temperature, or range, at which the solid turns liquid.

Consider `C=CCOc1cc(Br)ccc1C(=O)OC`, for which the melting point stood at 62 °C.

For `COC(=O)c1ccc(-c2nc(-c3ccc4c(c3)C(C)(C)CCC4(C)C)co2)cc1`, the melting point was in the range of 207 to 208 °C.

On to `Nc1nc2ccc(S(=O)(=O)n3c(CCC(=O)O)cc4cc(C(F)(F)F)ccc43)cc2s1`, for which the melting point was over 250 °C.

On to `C=CCCC(=O)N1C(=O)OC[C@@H]1C(C)C`, for which the melting point was 119 to 120 °C.

For the molecule `CN(C)C1(c2ccccc2)CCC(c2cccs2)(c2[nH]c3ccccc3c2CCc2ccncc2)CC1` (stereo not drawn), the melting point lay within 54 to 60 °C.

On to `CCOC(=O)C1CS(=O)(=O)c2c(C(=O)c3ccccc3)cc(Cl)cc21` (stereo not drawn), for which the melting point fell in the range of 138 to 139 °C.

With `CCCCCCCCCCCCCCCCCCS(=O)c1cc2ccccc2c(N=Nc2ccc(OC)cc2)c1O` (stereo not drawn), the melting point was 108 to 110 °C.

Turning to `COc1cc(C)cc(OC)c1-c1nc(=NO)c(=O)n(C)c2ccccc12`, the melting point was 150 °C.

In turn, `N#Cc1ccc(C(=O)c2ccc(F)cc2)c(CO)c1` came in with a melting point of 85 °C.

As to `Cc1[nH]c(=O)ccc1-c1ccccc1`, the melting point was 201 to 208 °C.

Molecule `CC(C)(C)OC(=O)NC1CCCCCC=CC2CC2(C(=O)NS(=O)(=O)C2CC2)NC(=O)C2CC(OC(=O)c3ccccn3)CN2C1=O` (stereo not drawn) gave a melting point of 164 to 166 °C.

For the molecule `CN(c1cccc2cc(C3=NCC(CN4CCS(=O)CC4)S3)[nH]c12)S(=O)(=O)c1cccs1` (stereo not drawn), the melting point was 204 °C.

Regarding `CCCCNc1ncc2ccc(=O)n(C)c2n1`, the melting point fell in the range of 146 to 147 °C.

The molecule `CCOC(=O)c1ccc(NC(=O)C=C(C)c2ccc(Cl)cc2)cc1` yielded a melting point of 150 to 152 °C.

In turn, `CN(C)c1sc2cc(OCc3ccccc3)ccc2c1C(=O)c1ccc(F)c(C(F)(F)F)c1` came in with a melting point of 164 to 167 °C.

`COc1cc(COc2nn(Cc3cccnc3)cc2CO)ccc1OCc1nc(-c2ccco2)oc1C`: the melting point fell in the range of 90 to 91 °C.

In turn, `CC(C)Oc1ccc(O)cc1OCCN1C(=O)c2ccccc2C1=O` displayed a melting point of 123 °C.

`CC(C)(C)c1cc(Br)c2cc(C(C)(C)C)cc(Br)c2c1` had a melting point of 226 °C.

On to `CNC(=O)c1cc(-c2ccc(-c3ccco3)cc2)n(-c2ccc(S(C)(=O)=O)c(F)c2)n1`, for which the melting point lay within 196 to 198 °C.

Turning to `Cc1cccc(Sc2c(O)c3ccc(Cl)cc3[nH]c2=O)c1`, the melting point lay in the range of 234 to 236 °C.

Regarding `O=C1NC(=O)C(=Cc2ccc(OCCN3c4ccccc4Sc4ccccc43)cc2)S1`, the melting point lay in the range of 168 to 170 °C.

`O=C(O)c1coc(Cl)c1`: the melting point is 124 to 125 °C.

With `O=C(OCCCCl)c1ccc([N+](=O)[O-])cc1[N+](=O)[O-]`, the melting point amounted to 40 °C.

In turn, `COc1cccc(OC)c1Cc1c(O)ncnc1O` came in with a melting point of over 245 °C.

`O=C(NCC1C2(CCCC1(c1ccccc1)c1ccccc1)OCCO2)c1ccccc1` (racemic) returned a melting point of 162 °C.

Turning to `CCOC(=O)c1cncc(O)c1`, the melting point is 150 °C.

Molecule `Cc1cc(Cl)ccc1OCC(=O)N1Cc2ccc(C(=O)CCc3ccccc3)n2Cc2ccccc21` yielded a melting point of 130 to 134 °C.

As for `CCC(Oc1cc(C)cc(C)c1)C(=O)NCc1ccccc1` (stereo not drawn), the melting point was 93 to 94 °C.

As to `COc1ncccc1-c1cccn2nc(Nc3ccc4ncccc4c3)nc12`, the melting point was in the range of 247 to 249 °C.

In turn, `O=C(N1CC2CCC(C1)O2)C12CC3CC(CC(C3)C1)C2` returned a melting point of 134 to 136 °C.

With `CCCCN(Cc1ccc(-c2ccccc2-c2nnn[nH]2)cc1)c1ncncc1C(=O)OC(C)OC(=O)C(C)(C)C` (stereo not drawn), the melting point fell in the range of 71 to 85 °C.

On to `CN(C)CCN1C(=O)c2cscc2N(C)c2ccccc21`, for which the melting point lay in the range of 147 to 149 °C.

The molecule `CCCc1nc2c(N)ncc(Br)c2n1CCOCCNS(C)(=O)=O` had a melting point of 129 to 131 °C.

`O=C1CCN(c2ccc(C=C3SC(=O)NC3=O)cc2F)CC1` yielded a melting point of over 200 °C.

As for `N#Cc1ccc2nc(C(=O)NCc3cccc(CNC(=O)Cc4nc[nH]n4)c3)[nH]c(=O)c2c1`, the melting point lay in the range of 207 to 208 °C.

In turn, `COCOCc1cccc(-c2ccc(C(=O)OC)cc2)c1` displayed a melting point of 54 to 55 °C.

In the case of `COc1ccc(-c2nc(N)ncc2-c2ccc(=O)n(C(C)C)n2)cc1F`, the melting point was determined as 174 °C.

Molecule `Cc1ccccc1C[C@H](C(=O)Nc1nc2ccccc2o1)c1ccc(S(C)(=O)=O)cc1` displayed a melting point of 99 to 102 °C.

The molecule `COC(=O)CCCc1cc2nc(Cl)ccc2n1S(=O)(=O)c1ccccc1C(F)(F)F` yielded a melting point of 127 °C.

The molecule `OC(CCn1ccnc1)c1ccc2c(c1)Cc1ccccc1-2` (stereo not drawn) yielded a melting point of 144 to 146 °C.

The molecule `CCC(C)Nc1nc(Cc2cc(OC)c(OC)c(OC)c2)nc2sc(C#N)c(C)c12` (stereo not drawn) registered a melting point of 134 to 137 °C.

Molecule `CCN(CC)C(=O)CCc1nc(-c2ccccn2)nc2ccccc12` had a melting point of 130 °C.

`CCOC(=S)SCCC(=O)N1CCC[C@H]1C(=O)O` returned a melting point of 94 to 95 °C.

Turning to `COC(=O)[C@@H](C)NC(=O)CBr`, the melting point is 51 to 52 °C.

Consider `O=c1[nH]nc(-c2ccc(C(F)(F)F)cc2)o1`, for which the melting point is 214 to 216 °C.

Molecule `CCOc1ccc([N+](=O)[O-])cc1I` yielded a melting point of 81 to 83 °C.

In turn, `OCCCN1Cc2cccc3c2N(CC3)c2ccccc21` returned a melting point of 194 to 196 °C.

The molecule `FC(F)(F)C1(c2cc(Cl)cc(Cl)c2)CC(c2ccc(Br)nc2)=NO1` (stereo not drawn) yielded a melting point of 147 to 148 °C.

`COC(=O)c1nc2cccc(C(F)(F)F)c2c(O)c1C(=O)OC` displayed a melting point of 180 to 182 °C.

Take `CCOC(=O)CC(c1ccccc1)C(C#N)c1ccccc1` (stereo not drawn): the melting point lay within 60.5 to 63 °C.

In turn, `O=C(O)c1ccc(C=CC(=O)N2CCCCC2)cc1` showed a melting point of 257 °C.

Turning to `O=c1c2ccccc2[nH]c2c(OCCCCN(CCO)CCO)cccc12`, the melting point was 124 to 126 °C.

`COc1cc(C(=O)O)ccc1-c1ccc(-c2ccccc2)c(-c2ccc3c(c2)C(C)(C)CCC3(C)C)c1`: the melting point is 144 to 146 °C.

The molecule `Cc1cc(N2CCN(c3ccncc3)CC2)ccc1OCCCC(=O)O` yielded a melting point of 261 to 262 °C.

Consider `CCOC(=O)c1oc(C(C)(C)C)cc1N`, for which the melting point was 44 to 45 °C.

Take `CCCCCCCCCCCC(=O)c1ccc(-c2ccc(O)c(F)c2)cc1`: the melting point lay in the range of 123 to 124 °C.

The molecule `O=C(OCC1CCCC1)c1ncn2c1[C@@H]1CCCN1C(=O)c1c(Cl)cccc1-2` displayed a melting point of 112 to 114 °C.

`COc1ccc(-c2ccc3c(c2)c2ccc(C=Cc4ccccc4)nc2n3S(=O)(=O)c2ccccc2)cc1` displayed a melting point of 193 to 195 °C.

`C=C1CCc2c(F)c(F)cc3c(=O)c(C(=O)O)cn1c23` registered a melting point of 220 to 232 °C.

Turning to `COc1cc(OCC(O)CCl)cc2oc3ccccc3c(=O)c12` (stereo not drawn), the melting point is 107 °C.

Molecule `O=C(CCc1nc(-c2ccc(Cl)cc2)co1)OC(c1ccccc1)c1ccccc1` returned a melting point of 94 to 95 °C.

For the molecule `CCCCCCCNC(=O)Nc1ccccc1C(=O)NC1CCNCC1`, the melting point worked out at 159 °C.

As for `COc1ccc2c(c1)CC(NNc1ncnc3c1ncn3C1OC(CO)C(O)C1O)CO2` (stereo not drawn), the melting point fell in the range of 90 to 95 °C.
